Series [1] has as its target T1, Alpha-2A adrenergic receptor (Homo sapiens, UniProt P08913).
T1 sequence (P08913 whole entry): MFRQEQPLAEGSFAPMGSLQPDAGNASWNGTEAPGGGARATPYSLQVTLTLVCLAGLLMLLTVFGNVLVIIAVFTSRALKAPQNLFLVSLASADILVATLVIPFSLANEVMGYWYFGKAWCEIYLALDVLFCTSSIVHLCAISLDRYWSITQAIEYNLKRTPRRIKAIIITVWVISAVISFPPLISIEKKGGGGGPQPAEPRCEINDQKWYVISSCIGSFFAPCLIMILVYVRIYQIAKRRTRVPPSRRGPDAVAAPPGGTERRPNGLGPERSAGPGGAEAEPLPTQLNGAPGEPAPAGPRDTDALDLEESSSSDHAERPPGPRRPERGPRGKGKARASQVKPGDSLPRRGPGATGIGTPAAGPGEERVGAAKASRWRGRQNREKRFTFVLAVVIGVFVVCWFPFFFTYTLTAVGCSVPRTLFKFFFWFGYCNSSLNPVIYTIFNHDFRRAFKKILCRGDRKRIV
Description: Displacement of [3H]MK-912 from adrenergic alpha2A receptor in HT29 cells. The class given is cell-based, HT-29. Background: Loss of bound radioactivity is the signal in a displacement assay; it reports binding, not function.

Series [2] concerns the target T2, Alpha-2C adrenergic receptor (Homo sapiens, UniProt P18825).
T2 sequence (P18825 whole entry): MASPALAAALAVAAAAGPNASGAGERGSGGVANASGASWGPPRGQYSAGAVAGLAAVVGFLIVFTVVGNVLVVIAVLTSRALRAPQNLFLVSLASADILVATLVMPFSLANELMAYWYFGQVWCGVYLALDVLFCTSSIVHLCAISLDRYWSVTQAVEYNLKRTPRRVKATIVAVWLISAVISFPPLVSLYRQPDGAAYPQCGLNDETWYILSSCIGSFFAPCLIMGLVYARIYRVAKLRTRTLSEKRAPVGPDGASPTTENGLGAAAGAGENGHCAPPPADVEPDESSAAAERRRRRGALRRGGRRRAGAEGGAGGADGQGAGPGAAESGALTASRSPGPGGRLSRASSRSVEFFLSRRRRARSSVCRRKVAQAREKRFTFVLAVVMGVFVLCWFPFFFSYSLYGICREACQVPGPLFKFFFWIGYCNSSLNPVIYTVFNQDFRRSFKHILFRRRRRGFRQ
Description: Displacement of [3H]MK912 from adrenergic Alpha-2C receptor in HepG2 cells. Type of series: cell-based.

For series [3], the target named is T3, Alpha-2B adrenergic receptor (Homo sapiens, UniProt P18089).
T3 sequence (P18089 whole entry): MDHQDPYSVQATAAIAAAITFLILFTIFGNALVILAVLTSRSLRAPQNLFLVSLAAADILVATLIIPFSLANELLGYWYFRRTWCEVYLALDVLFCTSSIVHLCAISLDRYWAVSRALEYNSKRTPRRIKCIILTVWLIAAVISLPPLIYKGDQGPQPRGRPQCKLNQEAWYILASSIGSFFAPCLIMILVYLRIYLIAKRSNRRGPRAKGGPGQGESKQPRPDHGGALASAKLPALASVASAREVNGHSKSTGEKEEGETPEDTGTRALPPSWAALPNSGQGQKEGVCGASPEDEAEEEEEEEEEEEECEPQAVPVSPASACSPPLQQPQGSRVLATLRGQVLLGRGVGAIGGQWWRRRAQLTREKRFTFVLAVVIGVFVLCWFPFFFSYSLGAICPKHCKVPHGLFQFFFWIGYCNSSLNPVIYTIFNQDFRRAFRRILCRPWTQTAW
As to the kind of experiment: Displacement of [3H]MK912 from adrenergic alpha-2B receptor expressed in COS7 cells. Type of series: cell-based, COS-7.

In series [4] the target is T4, Alpha-2C adrenergic receptor (Homo sapiens) (UniProt P18825).
T4 sequence (whole entry): T2 sequence (P18825 whole entry)
As to the kind of experiment: Displacement of [3H]MK912 from adrenergic alpha-2C receptor in HepG2 cells at 0.1 uM. The class given is cell-based.

In series [5] the target is T5, Alpha-2A adrenergic receptor (Homo sapiens) (UniProt P08913).
T5 sequence (whole entry): T1 sequence (P08913 whole entry)
As to the kind of experiment: Displacement of [3H]MK912 from adrenergic alpha2A receptor in HT29 cells at 0.1 uM. The note with it: HT-29. Type of series: cell-based.

Series [6] deals with T6, Alpha-2B adrenergic receptor (Homo sapiens) (UniProt P18089).
T6 sequence (whole entry): T3 sequence (P18089 whole entry)
As to the kind of experiment: Displacement of [3H]MK912 from adrenergic alpha-2B receptor expressed in COS7 cells at 0.1 uM. Type of series: cell-based. Particulars: COS-7.

Series [7] can be described thus: AUC in mormoset at 2.5 mg/kg. Type of series: ADME, organism-based, Callithrix jacchus. Also noted: dose 2.5 mg/kg. Particulars: marmoset, plasma.
Series [8] concerns Callithrix jacchus. As to the kind of experiment: Activity against […] induced dyskinetic activity in marmoset at 30 mg/kg, po. Also noted: dose 30 mg/kg. Type of series: functional, organism-based.
For series [9], the system named is Callithrix jacchus. As to the kind of experiment: Activity against […] induced dyskinetic activity in marmoset at 2.5 mg/kg, po. The class given is functional, organism-based. Also noted: dose 2.5 mg/kg.

Molecules are shown by their SMILES. The source made the active and inactive calls. The rule behind the calls is not given here.

The source of these data is ChEMBL document CHEMBL1139117, “Novel 4-(6,7-dimethoxy-1,2,3,4-tetrahydroisoquinolin-2-yl)methylbenzofuran derivatives as selective alpha(2C)-adrenergic receptor antagonists” (Bioorg Med Chem Lett, 2007).

Consider `COc1cc2c(cc1OC)CN(Cc1cnc(N)n3nc(-c4ccco4)nc13)CC2`, for which the figures for the Ki in [1], in series [2] and in series [3] were 400 nM, 19 nM and 370 nM, respectively.
Take `COc1cc2c(cc1OC)CN(Cc1ccc(OC)c3oc(C(=O)NCCO)cc13)CC2`: in [4], the inhibition (usually the relative decrease from the control value, in per cent) turned out to be 6%.
In the case of `COc1ccc(CN2CCc3ccccc3C2)c2cc(-c3ccccc3)oc12`, the figures for the inhibition in series [5], in series [6] and in [4] were 30%, 51% and 54%, respectively.
On to `COc1cccc(-c2cc3c(CN4CCc5cc(OC)c(OC)cc5C4)ccc(OC)c3o2)c1`, for which the Ki (in general, a dissociation constant, usually derived from enzyme kinetics or from competition with a known ligand) in series [1] came out at 2550 nM; in series [2] it was 19 nM; in series [3] it was 804 nM.
For the compound `COc1cc2c(cc1OC)CN(Cc1ccc(OC)c3oc(-c4ccc(F)cc4)cc13)CC2`, in series [4], the inhibition came to 41%.
Same read-out and setting: the value for `COc1cc2c(cc1OC)CN(Cc1ccc(OC)c3oc(-c4ccncc4)cc13)CC2` was 35%.
`COc1ccc(CN2CCN(c3ccccc3)CC2)c2cc(C(=O)NCCN(C)C)oc12`: the inhibition in series [5] amounted to 80%; in series [6] it was 33%; in [4] it was 68%.
Take `COc1cc2c(cc1OC)CN(Cc1ccc(OC)c3oc(-c4cccc(C#N)c4)cc13)CC2`: the inhibition in series [4] is 42%.
`COc1cc2c(cc1OC)CN(Cc1ccc(OC)c3oc(C(=O)NCCN(C)C)cc13)CC2`: the AUC (in general, the area under the concentration-time curve, a measure of exposure) in series [7] turned out to be 144 ng·h/mL. Further, in the series with Callithrix jacchus [8], the outcome was inactive. Besides, the figures for the Ki in series [1], in [2] and in series [3] were 454 nM, 9.4 nM and 2070 nM, respectively.
Regarding `COc1cc2c(cc1OC)CN(Cc1ccc(OC)c3oc(-c4cccnc4)cc13)CC2`, the inhibition in series [4] is 62%.
On the same count and under the same terms, the value for `COc1ccc(CN2CCN(c3ccccc3)CC2)c2cc(-c3ccccc3)oc12` was 29%.
`COc1cc2c(cc1OC)CN(Cc1ccc(OC)c3oc(-c4cccc(C(=O)NCCO)c4)cc13)CC2`: the inhibition came to 29% in [5], 31% in series [6] and 54% in series [4].
Consider `COc1cc2c(cc1OC)CN(Cc1ccc(OC)c3oc(-c4ccccc4)cc13)CC2`, for which, in the series with Callithrix jacchus [9], the result was Active. Besides, the AUC in [7] came to 11 ng·h/mL. Also, the Ki stood at 1740 nM in series [1], 20 nM in [2] and 752 nM in series [3].
`COc1cc2c(cc1OC)CN(Cc1ccc(OC)c3oc(-c4cccc(C(=O)NCCN(C)C)c4)cc13)CC2`: the Ki in [1] stood at 216 nM; in [2], 9.4 nM; in series [3], 584 nM.
In turn, `COc1cc2c(cc1OC)CN(Cc1cc(OC)c3oc(C(=O)NCCN(C)C)cc3c1)CC2` displayed an inhibition in series [4] of 41%.
Take `COc1cc2c(cc1OC)CN(Cc1ccc(OC)c3oc(C(=O)NC4CN5CCC4CC5)cc13)CC2` (stereo not given): the Ki amounted to 42 nM in series [1], 0.8 nM in series [2] and 857 nM in series [3].
For `COc1cc2c(cc1OC)CN(Cc1ccc(OC)c3oc(-c4ccccc4OC)cc13)CC2`, the inhibition in [5] came out at 11%; in [6], 20%; in [4] it was 35%.
`COc1cc2c(cc1OC)CN(Cc1cc(OC)c3oc(-c4ccccc4)cc3c1)CC2` returned an inhibition in series [4] of 19%.
The same measure, in the same setting: the value for `COc1cc2c(cc1OC)CN(Cc1ccc(OC)c3oc(C(=O)NCCNC(C)=O)cc13)CC2` was 9%.
Regarding `COc1cc2c(cc1OC)CN(Cc1ccc(OC)c3oc(-c4cccc(F)c4)cc13)CC2`, the figures for the inhibition in [5], in series [6] and in [4] were 3%, 13% and 52%, respectively.
Take `COc1cc2c(cc1OC)CN(Cc1ccc(OC)c3oc(-c4ccccc4C(F)(F)F)cc13)CC2`: the Ki is 304 nM in series [1], 18 nM in series [2] and 949 nM in series [3].
As for `COc1ccc(-c2cc3c(CN4CCc5cc(OC)c(OC)cc5C4)ccc(OC)c3o2)cc1`, the inhibition in [4] is 56%.
Consider `COc1ccc(CN2CCc3ccccc3C2)c2cc(C(=O)NCCN(C)C)oc12`, for which the inhibition amounted to 88% in series [5], 51% in [6] and 94% in [4].
In series [4], `CCCNC(=O)c1cc2c(CN3CCc4cc(OC)c(OC)cc4C3)ccc(OC)c2o1` came in with an inhibition of 20%.
For `COc1cc2c(cc1OC)CN(Cc1ccc(OC)c3oc(-c4ccc(C(F)(F)F)cc4)cc13)CC2`, the inhibition in [4] stood at 18%.
Still for that read-out and setting: the value for `CCCNC(=O)c1cccc(-c2cc3c(CN4CCc5cc(OC)c(OC)cc5C4)ccc(OC)c3o2)c1` was 48%.
`COc1cc2c(cc1OC)CN(Cc1ccc3cc(C(=O)NCCN(C)C)oc3c1OC)CC2`: the inhibition stood at 20% in series [5], 15% in series [6] and 65% in series [4].
Regarding `COc1cc2c(cc1OC)CN(Cc1ccc(OC)c3oc(C(=O)N4CCC(N5CCCC5)CC4)cc13)CC2`, the figures for the Ki in [1], in series [2] and in [3] were 186 nM, 3.5 nM and 1360 nM, respectively.
The like results for `COc1cc2c(cc1OC)CN(Cc1ccc(OC)c3oc(-c4ccccn4)cc13)CC2` were, in that order, 135 nM, 9.6 nM and 330 nM.
For `COc1cc2c(cc1OC)CN(Cc1ccc(OC)c3oc(-c4ccccc4F)cc13)CC2`, the Ki in [1] is 857 nM; in [2], 11 nM; in [3], 299 nM.
As for `COc1cc2c(cc1OC)CN(Cc1ccc3cc(-c4ccccc4)oc3c1OC)CC2`, the inhibition in series [4] was 39%.
For `COc1cc2c(cc1OC)CN(Cc1ccc(OC)c3oc(-c4ccco4)cc13)CC2`, the Ki stood at 204 nM in [1], 8 nM in series [2] and 160 nM in series [3].
Take `COc1cc2c(cc1OC)CN(Cc1ccc(OC)c3oc(C(=O)NCC(C)(C)N)cc13)CC2`: the values for the Ki in series [1], in [2] and in series [3] were 141 nM, 4.2 nM and 1540 nM, respectively.
